Measurements published in patent US6147098A, “Substituted guanidines and diaminonitroethenes, their preparation and use” (Novo Nordisk A/S, priority 1998, dated 2000).

Legend:
[1] = system: rat aorta rings; experiment: Relaxation of rat aorta rings; format: cell-based; conditions: phenylephrine-contracted rat thoracic aorta rings; cumulative addition; read-out: EC50 (concentration required to evoke a 50% relaxation of the tissue)
Experimental: The activity of the compounds as potassium channel openers can also be measured as relaxation of rat aorta rings according to the following procedure:
A section of rat thoracic aorta between the aortic arch and the diaphragm was dissected out and mounted as ring preparations as described by Taylor P. D. et al, Brit J. Pharmacol, 111, 42-48 (1994).
After a 45 min. equilibration period under a tension of 2 g, the preparations were contracted to achieve 80% of the maximum response using the required concentration of phenylephrine. When the phenylephrine response reached a plateau, potential vasodilatory agents were added cumulatively to the bath in small volumes using half log molar increments at 2 min intervals. Relaxation was expressed at the percentage of the contracted tension. The potency of a compound was expressed as the concentration required to evoke a 50% relaxation of the tissue.

[2] = system: rin 5F cells; experiment: 86Rb+ efflux from a β-cell line (increased Rb-efflux in rin 5F cells); format: cell-based; conditions: 1 h at room temperature
Experimental: An opening of KATP -channels will result in an efflux of potassium ions. By measuring the release of ^86 Rb^+ (a radioactive potassium mimic) from e.g. beta-cells pre-incubated in the presence of ^86 Rb^+ the effect of compounds acting as potassium channel openers can be determined. The test expresses the ability of the compounds to regulate the secretion of insulin from the beta-cells.
^86 Rb^+ efflux from a β-cell line
The RIN 5F cell line was grown in RPMI 1640 with Glutamax I, supplemented with 10% fetal calf serum (from GibcoBRL, Scotland, UK) and maintained in an atmosphere of 5% CO2 /95% air at 37° C. The cells were detached with a Trypsin-EDTA solution (from GibcoBRL, Scotland, UK), resuspended in medium, added 1 mCi/ml ^86 Rb^+ and replated into microtiter plates (96 well cluster 3596, sterile, from Costar Corporation,Mass., USA) at a density of 50000 cells/well in 100 μl/well, and grown 24 hours before use in assay.
The plates were washed 4 times with Ringer buffer (150 mM NaCl, 10 mM Hepes, 3.0 mM KCl, 1.0 mM CaCl2, 20 mM Sucrose, pH 7.1). Eighty μl Ringer buffer and 1 μl control- or test compound dissolved in DMSO was added. […] The plates were counted in TopCount (Packard Instrument Company, CT, USA) for 1 min/well at the 32p program. […]

[3] = system: IDDM; conditions: animal experiments and early non-blinded experiments in humans; cited from earlier work

EC50 [1] [µM]	EC50 [2] [µM]	Compound	role against IDDM and cytokine/immune mediated beta-cell destruction [3]
5.6	2.6	CC(C)CCN=C(NC#N)Nc1cc(C(F)(F)F)cc(C(F)(F)F)c1 [Example 1, N-Cyano-N'-(3,5-bis(trifluoromethyl)phenyl)-N"-(3-methylbutyl)guanidine]	
		NC(=O)c1cccnc1 [Nicotinamide]	protective role
